Results as given in ChEMBL document CHEMBL3431459, “Roche carnitine palmitoyltransferase modulator screening data (supplementary data associated with the publication CHEMBL2216752)”.
pIC50: −log10 of the molar value.

Assays:
[1] = target: T1, Carnitine O-palmitoyltransferase 1, liver isoform (Rattus norvegicus, UniProt P32198); test: (§1) SUPPLEMENTARY: Inhibition of Carnitine palmitoyltransferase 1, liver isoform
T1 sequence (P32198 whole entry): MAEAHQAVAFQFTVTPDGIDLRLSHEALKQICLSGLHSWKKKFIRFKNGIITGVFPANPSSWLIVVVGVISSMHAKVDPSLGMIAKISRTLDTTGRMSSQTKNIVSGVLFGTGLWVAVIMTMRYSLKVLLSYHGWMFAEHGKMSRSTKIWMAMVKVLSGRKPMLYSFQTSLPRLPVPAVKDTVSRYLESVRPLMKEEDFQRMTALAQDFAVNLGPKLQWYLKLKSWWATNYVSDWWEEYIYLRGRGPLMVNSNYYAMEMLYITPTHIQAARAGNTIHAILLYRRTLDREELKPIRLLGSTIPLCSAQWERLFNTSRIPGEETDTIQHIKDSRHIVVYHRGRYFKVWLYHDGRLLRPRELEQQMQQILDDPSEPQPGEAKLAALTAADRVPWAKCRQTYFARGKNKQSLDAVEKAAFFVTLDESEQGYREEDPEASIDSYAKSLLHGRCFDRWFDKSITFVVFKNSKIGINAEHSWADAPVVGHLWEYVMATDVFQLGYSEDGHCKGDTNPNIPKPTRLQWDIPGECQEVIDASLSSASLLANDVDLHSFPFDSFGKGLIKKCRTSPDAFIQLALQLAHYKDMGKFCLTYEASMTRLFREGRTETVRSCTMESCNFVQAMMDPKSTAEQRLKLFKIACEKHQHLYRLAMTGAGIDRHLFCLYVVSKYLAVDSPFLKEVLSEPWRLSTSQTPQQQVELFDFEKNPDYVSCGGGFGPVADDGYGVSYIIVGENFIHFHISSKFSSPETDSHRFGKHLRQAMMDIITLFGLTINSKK

[2] = target: T2, Carnitine O-palmitoyltransferase 1, liver isoform (Homo sapiens, UniProt P50416); test: as §1
T2 sequence (P50416 whole entry): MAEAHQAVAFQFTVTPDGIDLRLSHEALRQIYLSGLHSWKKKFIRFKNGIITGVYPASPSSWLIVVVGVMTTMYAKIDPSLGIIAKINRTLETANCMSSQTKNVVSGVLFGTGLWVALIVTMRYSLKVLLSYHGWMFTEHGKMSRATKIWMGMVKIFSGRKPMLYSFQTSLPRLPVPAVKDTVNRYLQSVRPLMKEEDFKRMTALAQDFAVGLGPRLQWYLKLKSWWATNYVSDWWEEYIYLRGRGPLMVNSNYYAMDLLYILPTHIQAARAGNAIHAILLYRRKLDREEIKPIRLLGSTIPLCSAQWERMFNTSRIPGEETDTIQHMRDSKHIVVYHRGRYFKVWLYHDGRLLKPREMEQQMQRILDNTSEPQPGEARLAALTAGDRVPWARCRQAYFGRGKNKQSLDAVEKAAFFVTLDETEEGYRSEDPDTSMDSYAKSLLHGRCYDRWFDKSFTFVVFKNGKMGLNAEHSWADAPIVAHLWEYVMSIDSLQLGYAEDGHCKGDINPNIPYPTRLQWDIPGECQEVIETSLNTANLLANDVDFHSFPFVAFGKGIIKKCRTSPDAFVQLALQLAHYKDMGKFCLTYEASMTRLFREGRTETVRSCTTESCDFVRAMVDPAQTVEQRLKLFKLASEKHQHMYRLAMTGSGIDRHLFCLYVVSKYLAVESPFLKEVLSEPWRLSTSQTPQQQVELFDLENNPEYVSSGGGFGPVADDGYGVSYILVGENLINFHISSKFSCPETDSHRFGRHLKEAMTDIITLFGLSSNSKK

[3] = target: T3, Carnitine O-palmitoyltransferase 2, mitochondrial (Homo sapiens, UniProt P23786); test: (§2) SUPPLEMENTARY: Inhibition of Carnitine palmitoyltransferase 2
T3 sequence (P23786 whole entry): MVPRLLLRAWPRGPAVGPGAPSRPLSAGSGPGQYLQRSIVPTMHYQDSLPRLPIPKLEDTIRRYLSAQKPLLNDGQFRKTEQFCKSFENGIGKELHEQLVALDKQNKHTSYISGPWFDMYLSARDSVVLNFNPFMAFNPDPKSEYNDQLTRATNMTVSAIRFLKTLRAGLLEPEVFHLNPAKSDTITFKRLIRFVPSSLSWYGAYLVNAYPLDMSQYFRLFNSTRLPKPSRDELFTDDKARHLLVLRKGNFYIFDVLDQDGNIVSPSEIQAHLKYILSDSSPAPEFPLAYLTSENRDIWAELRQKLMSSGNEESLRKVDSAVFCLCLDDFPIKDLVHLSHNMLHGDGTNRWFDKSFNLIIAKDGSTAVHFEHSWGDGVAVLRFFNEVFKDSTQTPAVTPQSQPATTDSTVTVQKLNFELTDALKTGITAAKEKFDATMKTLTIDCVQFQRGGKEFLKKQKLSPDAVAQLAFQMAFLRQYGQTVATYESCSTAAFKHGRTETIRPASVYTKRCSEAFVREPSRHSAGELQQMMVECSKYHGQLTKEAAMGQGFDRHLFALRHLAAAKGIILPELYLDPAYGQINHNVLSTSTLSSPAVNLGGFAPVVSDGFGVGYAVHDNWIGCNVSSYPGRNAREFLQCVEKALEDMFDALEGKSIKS

[4] = target: T4, Carnitine O-palmitoyltransferase 2, mitochondrial (Rattus norvegicus, UniProt P18886); test: as §2
T4 sequence (P18886 whole entry): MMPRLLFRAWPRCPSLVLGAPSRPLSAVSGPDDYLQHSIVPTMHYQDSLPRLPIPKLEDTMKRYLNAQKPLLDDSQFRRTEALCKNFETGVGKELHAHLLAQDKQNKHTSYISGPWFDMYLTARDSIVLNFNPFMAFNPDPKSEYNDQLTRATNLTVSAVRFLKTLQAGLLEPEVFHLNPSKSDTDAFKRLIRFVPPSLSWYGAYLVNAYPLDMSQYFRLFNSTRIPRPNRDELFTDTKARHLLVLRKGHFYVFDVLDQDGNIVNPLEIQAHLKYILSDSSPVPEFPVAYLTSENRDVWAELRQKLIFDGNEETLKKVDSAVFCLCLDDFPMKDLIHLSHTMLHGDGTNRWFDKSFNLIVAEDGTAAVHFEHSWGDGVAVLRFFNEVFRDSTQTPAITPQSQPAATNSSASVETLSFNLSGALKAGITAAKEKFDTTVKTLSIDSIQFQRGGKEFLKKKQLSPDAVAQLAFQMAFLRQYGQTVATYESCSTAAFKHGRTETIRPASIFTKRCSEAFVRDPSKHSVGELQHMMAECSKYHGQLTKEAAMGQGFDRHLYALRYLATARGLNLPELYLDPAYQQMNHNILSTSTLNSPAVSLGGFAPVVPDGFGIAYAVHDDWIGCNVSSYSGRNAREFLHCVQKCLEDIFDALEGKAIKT

[5] = target: T5, Carnitine O-palmitoyltransferase 1, muscle isoform (Homo sapiens, UniProt Q92523); test: SUPPLEMENTARY: Inhibition of Carnitine palmitoyltransferase 1, muscle isoform; design: species or system Muscle tissue
T5 sequence (Q92523 whole entry): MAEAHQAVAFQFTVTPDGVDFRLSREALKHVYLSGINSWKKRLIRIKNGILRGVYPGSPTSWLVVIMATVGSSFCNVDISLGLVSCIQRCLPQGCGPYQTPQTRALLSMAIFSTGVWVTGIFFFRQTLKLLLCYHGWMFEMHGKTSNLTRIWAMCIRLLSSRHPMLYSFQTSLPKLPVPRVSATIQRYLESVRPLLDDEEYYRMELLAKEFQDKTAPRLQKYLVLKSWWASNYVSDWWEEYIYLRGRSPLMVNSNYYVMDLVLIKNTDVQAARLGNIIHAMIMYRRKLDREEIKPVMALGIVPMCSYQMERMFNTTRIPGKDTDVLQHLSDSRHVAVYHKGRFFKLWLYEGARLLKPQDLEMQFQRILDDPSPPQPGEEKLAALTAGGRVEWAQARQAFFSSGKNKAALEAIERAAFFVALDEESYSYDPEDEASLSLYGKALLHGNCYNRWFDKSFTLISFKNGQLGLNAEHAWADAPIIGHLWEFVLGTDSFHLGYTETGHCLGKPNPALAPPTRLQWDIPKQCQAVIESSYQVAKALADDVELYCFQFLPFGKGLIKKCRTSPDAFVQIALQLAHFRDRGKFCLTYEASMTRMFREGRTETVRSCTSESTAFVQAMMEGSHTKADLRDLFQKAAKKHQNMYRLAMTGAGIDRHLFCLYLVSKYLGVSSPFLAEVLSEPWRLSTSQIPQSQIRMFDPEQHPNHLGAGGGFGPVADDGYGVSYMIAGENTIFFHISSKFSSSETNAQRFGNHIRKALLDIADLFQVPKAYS

| pIC50 [1] | pIC50 [2] | pIC50 [3] | pIC50 [4] | pIC50 [5] | Structure (SMILES) |
| --- | --- | --- | --- | --- | --- |
| 6.63 | 6.82 | 6.26 | 6.54 | < 4.00 | O=C([C@H]1CCCCN1C(=O)COc1ccccc1)N1CCN(c2cccc(Cl)c2)CC1 |
| 6.41 | 7.12 | 4.79 | < 4.00 | < 4.00 | O=C1CCC(=O)N1c1cc(F)cc(-c2noc([C@H]3CCCCN3C(=O)COc3ccccc3)n2)c1 |
| 6.76 | 6.81 | < 4.00 | < 4.00 | < 4.00 | O=C(COc1ccccc1)N1CCCC[C@@H]1c1noc(-c2cc(F)c(F)cc2F)n1 |
| 7.14 | 6.89 | < 4.00 | < 4.00 | 5.14 | O=C(COc1ccccc1)N1CCCC[C@@H]1C#Cc1ccc2[nH]cnc2c1 |
| 6.18 | 6.41 | < 4.00 | < 4.00 | 5.74 | COc1ccc(Cl)cc1S(=O)(=O)N1CCCc2ccc(NC(=O)c3ccc(CC(=O)O)cc3)cc21 |
| 6.49 | 6.78 | 5.81 | 5.58 | < 4.00 | O=C([C@H]1CCCCN1C(=O)COc1ccccc1)N1CCN(c2ncccn2)CC1 |
| 6.91 | 7.06 | 5.36 | 4.98 | 5.82 | COc1ccc(Cl)cc1S(=O)(=O)N1CCSc2ccc(C(=O)Nc3ccc(C(=O)O)c(Cl)c3)cc21 |
| 7.11 | 6.81 | < 4.00 | < 4.00 | < 4.00 | O=C(COc1ccccc1)N1CCCC[C@@H]1c1nnn(-c2ccccc2)n1 |
| 5.77 | 6.76 | < 4.00 | < 4.00 | 5.55 | COc1ccc(Cl)cc1S(=O)(=O)N(CCC(=O)O)c1cc(C(=O)Nc2ccccc2)cc2c1OCO2 |
| 6.23 | 6.62 | 5.99 | 5.47 | < 4.00 | O=C([C@H]1CCCCN1C(=O)COc1ccccc1)N1CCN(c2ccccn2)CC1 |
| 6.99 | 6.65 | 5.59 | 4.81 | 5.67 | COc1ccc(C)cc1S(=O)(=O)N1CCOc2ccc(C(=O)Nc3ccc(C(=O)O)c(F)c3)cc21 |
| 5.96 | 6.05 | 4.28 | < 4.00 | 6.22 | COc1ccc(Cl)cc1S(=O)(=O)N(c1cc(C(=O)Nc2ccc(CC(=O)O)cc2)cc2c1OCO2)C(C)C |
| 5.98 | 6.30 | 4.35 | < 4.00 | 4.75 | O=C(COc1ccccc1)OCc1cc(-c2nc([C@H]3CCCCN3C(=O)COc3ccccc3)cs2)ccn1 |
| 6.73 | 6.65 | 4.86 | < 4.00 | 5.53 | COc1ccc(Cl)cc1S(=O)(=O)N(c1cc(C(=O)Nc2nc(CC(=O)O)cs2)cc2c1OCO2)C(C)C |
| 7.84 | 7.40 | < 4.00 | < 4.00 | 4.77 | COc1ccc(Cl)cc1S(=O)(=O)N1C[C@@H](C(=O)O)Oc2ccc(C(=O)Nc3ccccc3)cc21 |
| 6.41 | 6.70 | 5.50 | 6.02 | < 4.00 | O=C([C@H]1CCCCN1C(=O)COc1ccccc1)N1CCN(c2cc(Cl)cc(Cl)c2)CC1 |
| 6.34 | 6.21 | < 4.00 | < 4.00 | 5.82 | COCCN(c1cc(C(=O)Nc2ccc(CC(=O)O)cc2)cc2c1OCO2)S(=O)(=O)c1cc(Cl)ccc1OC |
| 6.12 | 6.49 | 4.10 | 4.04 | – | Nc1ccc(-c2n[nH]c([C@H]3CCCCN3C(=O)COc3ccccc3)n2)cn1 |
| 6.46 | 6.55 | 4.42 | < 4.00 | 5.55 | CCN(c1cc(C(=O)Nc2ccc(CC(=O)O)cc2)cc2c1OCO2)S(=O)(=O)c1cc(Cl)ccc1OC |
| 6.20 | 6.52 | 4.22 | < 4.00 | < 4.00 | COC(=O)c1cccc(-c2nc([C@H]3CCCCN3C(=O)COc3ccccc3)sc2C)c1 |
| 6.16 | 6.47 | < 4.00 | < 4.00 | 5.86 | CCN(c1cc(C(=O)Nc2ccn(CC(=O)O)n2)cc2c1OCO2)S(=O)(=O)c1cc(Cl)ccc1OC |
